This note sets out measurements from patent publication US12012597B2, “Cancer treatment using siRNA to modulate expression of PRDM2/RIZ protein” (ARIZ Precision Medicine, Inc., priority 2020, dated 2024).

Entries after “also recorded” stand apart in the source; their conditions may differ. d = 2'-deoxy (DNA); r = 2'-OH (RNA)

Data set [1] deals with HCT116 colon cancer cells. The data set is described as follows: Cell viability after siRNA transfection with or without 5-fluorouracil. The settings on record: 5-fluorouracil 25 μM added one day after transfection, after four days, relative to untreated cells, FIG. 4.
Experimental: Where indicated, 5-fluorouracil (25 μM) was added one day after transfection. Media (with 5-flurouracil where indicated) was changed after two days, and after four days, percent cell viability was determined, relative to untreated cells.
Data set [2] concerns A549 lung cancer cells. Put plainly: MTS cell viability assay after siRNA transfection. Format: cell-based, human. Conditions: 100 nM siRNA; for Viability of the A549 lung cancer cells (change): DharmaFECT 1, after four days, FIG. 2; for relative cell viability: single exposure, after four days, relative to untreated cells. In general terms: Tetrazolium assays rely on reduction of a dye to a coloured formazan, in cell work by metabolically active cells.

In data set [3] the test system is RIZ2 mRNA. The data set is described as follows: qPCR of RIZ2 mRNA in siRNA-transfected A549 cells. Format: cell-based, human. The protocol: (§1) RIZ1 and RIZ2 mRNA levels were determined in control and siRNA-transfected cells using qPCR. RNA was extracted from cells 48 hours after transfection, and mRNA expression levels were detected using PRDM isoform A and PRDM isoform C specific PCR primers. RIZ mRNA expression levels were determined relative to GAPDH mRNA expression levels. Scrambled siRNA was used a negative control, and Tox (Transfection control siRNA, commercially available) was used a positive control.

In data set [4] the test system is RIZ1 mRNA. Put plainly: qPCR of RIZ1 mRNA in siRNA-transfected A549 cells. Format: cell-based, human. The settings on record: qPCR relative to GAPDH mRNA. On the procedure: as §1
The test system of data set [5] is RIZ2 mRNA. The data set is described as follows: RIZ2 mRNA level in HCT116 cells after siRNA. Format: cell-based, human. Conditions: FIG. 5. The protocol: as §1
Data set [6] relates to RIZ1 mRNA. The data set is described as follows: RIZ1 mRNA level in HCT116 cells after siRNA. Conditions: FIG. 5. Format: cell-based, human. The protocol:
as §1

Data set [7] has as its system KMS-11 multiple myeloma cell line. Put plainly: Viability of multiple myeloma cells after siRNA. Format: cell-based. The settings on record: comparable to the Tox positive control, FIG. 8. An excerpt: In this example, the effect of siRNA ARIZ-011 was further tested on a multiple myeloma cell line, KMS-11. KMS-11 cell line was obtained from commercially available sources, and was originally derived from […] multiple myeloma patient's cells. These cells have characteristics of plasma cells.

For the molecule `O=c1[nH]cc(F)c(=O)[nH]1` [5-fluorouracil], in data set [1] (Homo sapiens, HCT-116, read-out: decreased cell viability (killing) of HCT116 colon cancer cells, siRNA 100 nM), the cytotoxicity at 25 µM lay within 72 to 74%. The “decreased cell viability (killing) of HCT116 colon cancer cells” value in data set [1] (siRNA 100 nM) is given as 72%.
Turning to “ARIZ-011: Unmodified double-stranded siRNA, sense SEQ ID NO: 1, antisense SEQ ID NO: 10, complementary to both RIZ1 and RIZ2 mRNA (sense GGGAGAGAUGAGAGAGAAATT; antisense UUUCUCUCUCAUCUCUCCCTT; RNA, all phosphodiester, T or U not given here)”, in data set [2], the “Viability of the A549 lung cancer cells (change)” value (from here on “Viability … (change)”) is reported as “decreased” and the relative cell viability is on record as 30%. The “decrease in RIZ2 mRNA” value in data set [3] (48 hours after transfection, relative to GAPDH mRNA, FIG. 3) is on record as around 75%. Besides, the “RIZ2 mRNA level (change)” value in data set [3] (qPCR relative to GAPDH mRNA) is “knockdown”. Also, the “RIZ1 mRNA level (change)” value in data set [4] is “simultaneous increase in RIZ1 mRNA; also recorded: upregulated expression”. Further, the “expression level of RIZ2 (change)” value in data set [5] is reported as “selectively decreased”. Further, the “RIZ1 mRNA (change)” value in data set [6] was “concurrent increase”. Also, the “KMS-11 cell death in culture” value in data set [7] is on record as “about 80%”.
As for “ARIZ-012: Double-stranded siRNA, sense SEQ ID NO: 2, antisense SEQ ID NO: 12, complementary to sequences shared by RIZ1 and RIZ2 mRNA (sense GUGUAGUGCUGUAAAGAAATT; antisense UUUCUUUACAGCACUACACTT; sugars from the 5' end r19 d2, backbone and T or U not given here)”, the “Viability … (change)” value in data set [2] is “decreased”.
“ARIZ-015: Double-stranded siRNA, sense SEQ ID NO: 5, antisense SEQ ID NO: 15, complementary to last 19 bases at 3′ end of RIZ2 mRNA (sense GGACUUCAGGAACUUCCUGTT; antisense CAGGAAGUUCCUGAAGUCCTT; sugars from the 5' end r19 d2, backbone and T or U not given here)”: in data set [2], the “Viability … (change)” value was “decreased” and the relative cell viability turned out to be 70%.
